Experimental data as given in a melting point compilation (Tetko et al.; mined from patent text by program, amines drawn as free bases though some values may be those of a salt).

Structure (SMILES)	melting point [°C]
Nc1ccn2nc(-c3cccnc3)nc2c1	228 to 233
N#CC(C#N)(CCSC(F)(F)C(F)Cl)CC(F)(F)C(F)(F)C(F)(F)C(F)F (stereo not drawn)	78 to 80
C=C1CCC2C3CC(=O)c4cc(OC(C)=O)ccc4C3CCC12C (stereo not drawn)	91 to 94
Cc1ccsc1C(C)N(O)C(N)=O (stereo not drawn)	131
CS(=O)(=O)c1ccc(C2=C(c3ccc(F)cc3)CC3(CCCC3)C2)cc1	142 to 143
CN(C)C(=O)N(NC(=O)C(F)(F)F)c1ccc(Cl)cc1Cl	137 to 138
O=C(NC(Cc1ccc(OCc2ccc(C(F)(F)F)cc2)cc1)C(=O)O)c1cc2cc(-c3ccc(Cl)cc3)ccc2s1 (stereo not drawn)	198
CC1(C)c2ccc(C(O)CN3CCN(c4n[nH]c5ccccc45)CC3)cc2C(C)(C)C1O (stereo not drawn)	104 to 110
O=[PH]1Cc2ccc3ccccc3c2-c2c(ccc3ccccc23)C1	242 to 246
Cn1cnc2c3ncc(Cl)cc3ccc21	188 to 189
CC(C)n1nc(-c2sc(NC(=O)Cc3ccccc3)nc2-c2ccccc2)ccc1=O	250 to 252
CCOC(=O)C=Cc1ccc(OC)c2c1CC1(CCCC1)O2	81 to 91
O=C(Nc1ccc(-n2ccnn2)c(F)c1)OCc1ccccc1	121 to 122
CCOc1nc(C(F)(F)F)cc(=O)n1-c1cc(C(=O)OC)c(Cl)cc1F	96 to 98
COc1ccnc(CCc2nc3cccnc3[nH]2)c1	116 to 117
C#Cc1cnn2c(C)cc(-c3ccc(C(F)(F)F)cc3)nc12	89 to 90
COCCN1CCc2ccc(Nc3ncc(Cl)c(Nc4ccc(OC)c5c4C(=O)N(C)C5)n3)cc2CC1	206 to 207
CC(C)C[C@@H](NC(=O)OC(C)(C)C)C(=O)N[C@H](C(=O)OCc1ccccc1)C(C)C	82 to 83
Nc1cc(OC(F)(F)C(F)Cl)c(OC(F)(F)C(F)Cl)cc1N (stereo not drawn)	58 to 60
CC(C)[C@@H](C(N)=O)C(=O)O	174
COc1ccc(OC(=O)N2CCCC2=O)cc1	133 to 134
O=C(Nc1ccccc1)OCC1c2ccccc2-c2ccccc21	243 to 244
CC1(C)CC(=O)c2c(Cc3ccccc3)cn(-c3ccccn3)c2C1	111 to 113
CCCCc1nccc2c([N+](=O)[O-])cccc12	69 to 69.5
Oc1cnccc1CCCOc1cccnc1Nc1cccc(Br)c1	138 to 141

Structure (SMILES)	melting point [°C]
O=S1(=O)CS(=O)(=O)OCCO1	176 to 180
O=C(O)c1cccc(C(=O)Nc2cccc3cc(Br)cnc23)c1	275 to 277
O=C(O)COc1ccccc1-c1ccc(Cl)c(C(=O)NCC23CC4CC(CC(C4)C2)C3)c1	208 to 210
CC(=O)NNC(=O)c1ccc(Br)c(C)c1	186 to 187
COc1ccc2cc3c(=O)n(C)cc(C(=O)NCCN(C)C)c3nc2c1	213 to 215
O=C(O)/C=C/C=C(c1cccc([N+](=O)[O-])c1)c1cccc([N+](=O)[O-])c1	234 to 237
CCOC(=O)c1c(-c2ccccc2)c2cc(Cl)ccc2n1CC#N	119 to 120
CON(C)C(=O)[C@@H](Cc1ccc(OCc2ccccc2)cc1)NC(=O)OC(C)(C)C	107 to 109
c1ccc(CNc2nc3c(c4[nH]c(Cc5ccccc5)nc24)CCCC3)cc1	199 to 200
NNC(=O)C[C@H](O)COCc1ccccc1	96.9
N#Cc1cc([N+](=O)[O-])ccc1N1CCOCC1	138 to 140
CC(OCc1cccnc1)C(=O)Nc1ccc(C(=O)Nc2ccccc2N)cc1 (stereo not drawn)	144 to 148
CC(CS)C(=O)N(CC(=O)O)C1CC1 (stereo not drawn)	89 to 91
O=C1c2ccccc2-c2c1c1ccccc1c(=O)n2CCCNS(=O)(=O)c1ccccc1	216 to 218
CN(C)CCCCNC(=O)c1cccc(-c2nnc(CSCCOc3ccccc3)o2)c1	38 to 42
CSC1CCn2c(CCc3ccccc3)nc3cccc1c32 (stereo not drawn)	62.1 to 74.1
Cc1cccc(C)c1NC(=O)NC1(c2cccs2)CCCCC1	220 to 222
CNCCN(C)C(=O)[C@@H]1CCCN1S(=O)(=O)c1ccc(Cl)c(COc2cccc3c(-n4ccnc4)cc(C)nc23)c1Cl	116
ON=C(c1ccccc1)c1ccc(OCCCCOc2ccc(C(=NO)c3ccccc3)cc2)cc1	154 to 156
O=[N+]([O-])c1ccc(OC2CCCC2)cc1NC1CCCCC1	98
CCCn1nc(C2CC2)c(C(=O)OCC)c1Cc1ccc(-c2ccccc2S(=O)(=O)NC(C)(C)C)cc1	165 to 168
COc1ccc(N(CC(=O)O)c2ccccc2)c(C(=O)O)c1	158 to 161
CC(Cl)OC(=O)Oc1c(Br)cc(C#N)cc1Br (stereo not drawn)	91 to 93
CC1(C)OC(C=Cc2cccnc2)=CC1=O	68 to 70
CC(=O)Oc1ccc(-c2cnc(N(S(C)(=O)=O)S(C)(=O)=O)c(Cc3ccccc3)n2)cc1	166 to 167

Structure (SMILES)	melting point [°C]
Cc1nc(-c2cc(N)ccc2F)cs1	73 to 75
CCNC(=O)C(I)=C(Br)I	154 to 155
CCCCCCCNC(=O)Nc1cccc(-c2ccc(C=C(OC)C(=O)O)cc2OCCCC)c1	137
CN(C)Cc1ccc2cc(C(=O)Nc3ccc(-c4ccc(Cl)cc4)cc3)ccc2c1	240 to 242
Cc1noc(NC(=O)N2CCN(c3ccnc(-c4ccc(F)cc4F)n3)CC2)c1C	207 to 208
CC(C)(C)c1ccc(O)c(C=O)c1	81
CCOC(=O)c1cc(-n2c(=O)cc[nH]c2=O)ccc1Cl	170 to 172
C[Si]1(C)CCCCCCCCCCCCCC[Si](C)(C)O[Si](C)(C)CCCCCCCCCCCCCC[Si](C)(C)O1	97
CC(=O)c1cnc(-c2ccccc2)nc1-c1ccccc1	100 to 108
CC(=O)Oc1cc(O)c(Cl)cn1	270 to 272
O=c1[nH]c2ccc(Cl)cc2n1CCCCl	122
CN(C)CCCCOc1ccc(-c2nnc(CSCCOc3ccccc3)o2)cc1	62 to 63
CCOC(=O)N1CCN(c2nnc(N)[nH]2)CC1	196 to 198
COc1cccc([C@H]2O[C@H](CC(=O)NS(C)(=O)=O)C(=O)N(CC(C)(C)CO)c3ccc(Cl)cc32)c1OC	221 to 223
CN1CCC(c2c[nH]c3ccc(NC(=O)C4CCC4)nc23)CC1	104
O=C(c1ccccc1)c1cc(O)ccc1O	160 to 162
COC(=O)C1CCN2C(=O)C(=O)c3cc([N+](=O)[O-])cc1c32 (stereo not drawn)	144 to 145
CC1O[C@@](Cn2cncn2)(c2ccc(Cl)cc2Cl)[C@@H](C)N1S(C)(=O)=O (relative stereo)	160 to 170
O=c1[nH]c(Nc2ccccc2)nc2c1ncn2CCCCO	> 350
Cc1nn2c(=O)c(CCN3CCC(n4ccc5cc(F)ccc54)CC3)c(C)nc2s1	194
O=C(Cc1ccc(-c2ccc(F)cc2F)c(F)c1)NO	149 to 150
CC(=O)N1CCc2c(sc(C)c2C(=O)CN2CCC(c3noc4cc(F)ccc34)CC2)C1	92 to 94
COc1ccc(/C=C2\C3=C(CCCC3)CCN2C(C)=O)cc1	74.5 to 76
